The subject of test [1] is KRas-mediated phosphorylation of ERK in H727 cells. As to the kind of experiment: Inhibition of KRas-mediated phosphorylation of ERK (Cisbio HTRF pERK), H727 cells. The format is cell-based. The note with it: Homo sapiens, NCI-H727, H727 cells; HTRF pERK. The gist of the method:
(§1)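 HTRF readout of phospho-ERK in cell lysates after 3 hrs of compound exposure. Dosing: 10 uM top, 3-fold steps, 10 doses, final DMSO 0.8%. Min control: 0.2 uM Trametinib. Lysis ran 40 mins at 4° C, and antibody detection 2 hrs at room temperature.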

For test [2], the target named is T1, KRas^G12V (Homo sapiens, UniProt P01116, G12V).
T1 construct: Biotinylated KRas (corresponding to amino acids 1-169, produced at Accelegan Inc.); biotin (biotinylated); purchased Accelegan Inc
T1 sequence (P01116 1-169 isoform P01116-2 G12V): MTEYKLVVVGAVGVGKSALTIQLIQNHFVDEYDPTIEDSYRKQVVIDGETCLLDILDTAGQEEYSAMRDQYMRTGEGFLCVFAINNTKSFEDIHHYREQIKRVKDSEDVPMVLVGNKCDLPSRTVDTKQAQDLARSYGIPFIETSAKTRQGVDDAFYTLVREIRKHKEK
As to the kind of experiment: KRas binding assay (TR-FRET tracer displacement), KRas G12V. Background: Time-resolved FRET reads energy transfer from a long-lived donor to a nearby acceptor.

For test [3], the target named is T2, KRas^G12D (Homo sapiens, UniProt P01116, G12D).
T2 construct: Biotinylated KRas (corresponding to amino acids 1-169, produced at Accelegan Inc.); biotin (biotinylated); purchased Accelegan Inc
T2 sequence (P01116 1-169 isoform P01116-2 G12D): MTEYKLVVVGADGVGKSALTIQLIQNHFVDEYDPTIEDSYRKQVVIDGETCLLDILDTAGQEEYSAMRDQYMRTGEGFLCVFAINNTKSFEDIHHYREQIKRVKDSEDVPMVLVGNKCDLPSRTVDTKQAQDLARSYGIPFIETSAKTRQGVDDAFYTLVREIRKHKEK
As to the kind of experiment: KRas binding assay (TR-FRET tracer displacement), KRas G12D.

The target in test [4] is T3, KRas^G12R (Homo sapiens, UniProt P01116, G12R).
T3 construct: Biotinylated KRas (corresponding to amino acids 1-169, produced at Accelegan Inc.); biotin (biotinylated); purchased Accelegan Inc
T3 sequence (P01116 1-169 isoform P01116-2 G12R): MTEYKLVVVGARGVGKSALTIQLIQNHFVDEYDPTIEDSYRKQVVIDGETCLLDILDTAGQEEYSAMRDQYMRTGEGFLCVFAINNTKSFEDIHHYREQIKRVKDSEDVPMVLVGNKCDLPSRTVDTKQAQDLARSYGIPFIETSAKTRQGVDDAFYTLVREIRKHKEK
As to the kind of experiment: KRas binding assay (TR-FRET tracer displacement), KRas G12R.

In test [5] the test system is KRas-mediated phosphorylation of ERK in AsPC-1 cells. As to the kind of experiment: Inhibition of KRas-mediated phosphorylation of ERK (Cisbio HTRF pERK), AsPC-1 cells. The test is classed as cell-based. The settings on record: Homo sapiens, ASPC1, AsPC-1 cells; HTRF pERK. A digest of the protocol:
as §1

Molecules are shown by their SMILES.

As to `CCc1c(F)ccc2cc(O)cc(-c3ncc4c(N5CC6CN(C7COC7)CC6C5)nc(OC[C@@]56CCCN5C[C@H](F)C6)nc4c3F)c12` (stereo partly drawn) [Example 621, 5-ethyl-6-fluoro-4-(8-fluoro-2-(((2R,7aS)-2-fluorohexahydro-1H-pyrrolizin-7a-yl)methoxy)-4-(5-(oxetan-3-yl)hexahydropyrrolo[3,4-c]pyrrol-2(1H)-yl)pyrido[4,3-d]pyrimidin-7-yl)naphthalen-2-ol], the IC50 (in general, the point on the concentration scale where inhibition reaches its midpoint) in test [1] was over 10000 nM; in test [2], 1290 nM; in test [3] it was 891 nM; in test [4] it was 3490 nM; in test [5], over 10000 nM.
Turning to `CCc1c(F)ccc2cc(O)cc(-c3ncc4c(NCc5cc(C(=O)N(C)C)n([C@H]6C[C@H](O)C6)n5)nc(OC[C@@]56CCCN5C[C@H](F)C6)nc4c3F)c12` [Example 680, 3-(((7-(8-ethyl-7-fluoro-3-hydroxynaphthalen-1-yl)-8-fluoro-2-(((2R,7aS)-2-fluorohexahydro-1H-pyrrolizin-7a-yl)methoxy)pyrido[4,3-d]pyrimidin-4-yl)amino)methyl)-1-(trans-3-hydroxycyclobutyl)-N,N-dimethyl-1H-pyrazole-5-carboxamide], the half-inhibitory concentration (IC50) was over 10000 nM in test [1]; 43 nM in test [2]; 473 nM in test [3]; 234 nM in test [4]; over 10000 nM in test [5].
Consider `CCc1c(F)ccc2cc(O)cc(-c3ncc4c(N5CCC6(CC5)OCCC6C#N)nc(OC[C@@]56CCCN5C[C@H](F)C6)nc4c3F)c12` (stereo partly drawn) [Example 612, 8-(7-(8-ethyl-7-fluoro-3-hydroxynaphthalen-1-yl)-8-fluoro-2-(((2R,7aS)-2-fluorohexahydro-1H-pyrrolizin-7a-yl)methoxy)pyrido[4,3-d]pyrimidin-4-yl)-1-oxa-8-azaspiro[4.5]decane-4-carbonitrile], for which the IC50 in test [1] was over 10000 nM; in test [2], 474 nM; in test [3], 4250 nM; in test [4] it was 911 nM; in test [5] it was over 10000 nM.
With `CCc1c(F)ccc2cc(O)cc(-c3ncc4c(N5CC6CCC(CCC(=O)NC)(C6)C5)nc(OC[C@@]56CCCN5C[C@H](F)C6)nc4c3F)c12` (stereo partly drawn) [Example 909, 3-(3-(7-(8-ethyl-7-fluoro-3-hydroxynaphthalen-1-yl)-8-fluoro-2-(((2R,7aS)-2-fluorotetrahydro-1H-pyrrolizin-7a(5H)-yl)methoxy)pyrido[4,3-d]pyrimidin-4-yl)-3-azabicyclo[3.2.1]octan-1-yl)-N-methylpropanamide], the IC50 in test [1] worked out at 1310 nM; in test [2] it was 7 nM; in test [3] it was 24 nM; in test [4] it was 7 nM; in test [5] it was 5160 nM.
As for `CCc1c(F)ccc2cc(O)cc(-c3ncc4c(N5CCC(C)(C)SC(C)(C)C5)nc(OC[C@@]56CCCN5C[C@H](F)C6)nc4c3F)c12` [Example 626, 5-ethyl-6-fluoro-4-(8-fluoro-2-(((2R,7aS)-2-fluorohexahydro-1H-pyrrolizin-7a-yl)methoxy)-4-(2,2,7,7-tetramethyl-1,4-thiazepan-4-yl)pyrido[4,3-d]pyrimidin-7-yl)naphthalen-2-ol], the IC50 in test [1] was over 10000 nM; in test [2] it was 43000 nM; in test [3], 98800 nM; in test [4] it was 23600 nM; in test [5], over 10000 nM.
As for `CCc1c(F)ccc2cc(O)cc(-c3ncc4c(NCc5cc(C(=O)N(C)C)n(CCC#N)n5)nc(OC[C@@]56CCCN5C[C@H](F)C6)nc4c3F)c12` [Example 668, 1-(2-cyanoethyl)-3-(((7-(8-ethyl-7-fluoro-3-hydroxynaphthalen-1-yl)-8-fluoro-2-(((2R,7aS)-2-fluorohexahydro-1H-pyrrolizin-7a-yl)methoxy)pyrido[4,3-d]pyrimidin-4-yl)amino)methyl)-N,N-dimethyl-1H-pyrazole-5-carboxamide], the IC50 in test [1] is over 10000 nM; in test [2], 12 nM; in test [3], 34 nM; in test [4], 16 nM; in test [5], over 10000 nM.
In the case of `CCc1c(F)ccc2cc(O)cc(-c3ncc4c(NC5CCONC5)nc(OC[C@@]56CCCN5C[C@H](F)C6)nc4c3F)c12` (stereo partly drawn) [Example 542, 4-(4-((1,2-oxazinan-4-yl)amino)-8-fluoro-2-(((2R,7aS)-2-fluorohexahydro-1H-pyrrolizin-7a-yl)methoxy)pyrido[4,3-d]pyrimidin-7-yl)-5-ethyl-6-fluoronaphthalen-2-ol], the IC50 is 2330 nM in test [1]; 9 nM in test [2]; 60 nM in test [3]; 6 nM in test [4]; over 10000 nM in test [5].
Take `CCc1c(F)ccc2cc(O)cc(-c3ncc4c(N[C@@H]5C[C@@H](C)S(=O)(=O)[C@@H](C)C5)nc(OC[C@@]56CCCN5C[C@H](F)C6)nc4c3F)c12` [Example 630, (2R,4s,6S)-4-((7-(8-ethyl-7-fluoro-3-hydroxynaphthalen-1-yl)-8-fluoro-2-(((2R,7aS)-2-fluorohexahydro-1H-pyrrolizin-7a-yl)methoxy)pyrido[4,3-d]pyrimidin-4-yl)amino)-2,6-dimethyltetrahydro-2H-thiopyran 1,1-dioxide]: the IC50 in test [1] was 4420 nM; in test [2] it was 93 nM; in test [3], 796 nM; in test [4], 34 nM; in test [5], over 10000 nM.
The matching figures for `CCc1c(F)ccc2cc(O)cc(-c3ncc4c(NCc5cn(C(=O)N(C)C)nc5NC(=O)C5CC(O)C5)nc(OC[C@@]56CCCN5C[C@H](F)C6)nc4c3F)c12` (stereo partly drawn) [Example 693, 4-(((7-(8-ethyl-7-fluoro-3-hydroxynaphthalen-1-yl)-8-fluoro-2-(((2R,7aS)-2-fluorohexahydro-1H-pyrrolizin-7a-yl)methoxy)pyrido[4,3-d]pyrimidin-4-yl)amino)methyl)-3-(3-hydroxycyclobutanecarboxamido)-N,N-dimethyl-1H-pyrazole-1-carboxamide]: over 10000 nM, 25 nM, 509 nM, 38 nM and over 10000 nM.
The matching figures for `CCc1c(F)ccc2cc(O)cc(-c3ncc4c(N5CC(C)(O)C6CC5C6)nc(OC[C@@]56CCCN5C[C@H](F)C6)nc4c3F)c12` (stereo partly drawn) [Example 893, 2-(7-(8-ethyl-7-fluoro-3-hydroxynaphthalen-1-yl)-8-fluoro-2-(((2R,7aS)-2-fluorotetrahydro-1H-pyrrolizin-7a(5H)-yl)methoxy)pyrido[4,3-d]pyrimidin-4-yl)-4-methyl-2-azabicyclo[3.1.1]heptan-4-ol]: 3020 nM, 43 nM, 92 nM, 40 nM and 2100 nM.
In the same order, the values of `CCc1c(F)ccc2cc(O)cc(-c3ncc4c(N5CCC[C@@](C)(O)C5)nc(OCC5(CN(C)C)CC5CO)nc4c3F)c12` (stereo partly drawn) [Example 813, (3R)-1-(2-((1-((dimethylamino)methyl)-2-(hydroxymethyl)cyclopropyl)methoxy)-7-(8-ethyl-7-fluoro-3-hydroxynaphthalen-1-yl)-8-fluoropyrido[4,3-d]pyrimidin-4-yl)-3-methylpiperidin-3-ol] are 2550 nM, under 2 nM, under 2 nM, 4 nM and 1080 nM.
As for `CCc1c(F)ccc2cc(O)cc(-c3ncc4c(N5CC[C@@H]6C(=O)NC(=O)[C@@H]6CC5)nc(OC[C@@]56CCCN5C[C@H](F)C6)nc4c3F)c12` [Example 614, (3aR,8aS)-6-(7-(8-ethyl-7-fluoro-3-hydroxynaphthalen-1-yl)-8-fluoro-2-(((2R,7aS)-2-fluorohexahydro-1H-pyrrolizin-7a-yl)methoxy)pyrido[4,3-d]pyrimidin-4-yl)hexahydropyrrolo[3,4-d]azepine-1,3(2H,3aH)-dione], the IC50 in test [1] was over 10000 nM; in test [2], 398 nM; in test [3], 805 nM; in test [4], 701 nM; in test [5], over 10000 nM.
Take `CCc1c(F)ccc2cc(O)cc(-c3ncc4c(N5C[C@@H]6[C@@H](C(F)(F)F)C[C@]6(CO)C5)nc(OC[C@@]56CCCN5C[C@H](F)C6)nc4c3F)c12` [Example 647, 5-ethyl-6-fluoro-4-(8-fluoro-2-(((2R,7aS)-2-fluorohexahydro-1H-pyrrolizin-7a-yl)methoxy)-4-((1R,5R,6S)-1-(hydroxymethyl)-6-(trifluoromethyl)-3-azabicyclo[3.2.0]heptan-3-yl)pyrido[4,3-d]pyrimidin-7-yl)naphthalen-2-ol]: the half-maximal inhibitory concentration (IC50) is over 10000 nM in test [1]; 581 nM in test [2]; 1990 nM in test [3]; 582 nM in test [4]; 9340 nM in test [5].
In the same order, the values of `CCc1c(F)ccc2cc(O)cc(-c3ncc4c(NCc5cc(C(=O)N(C)C)n(CC6CC(O)C6)n5)nc(OC[C@@]56CCCN5C[C@H](F)C6)nc4c3F)c12` (stereo partly drawn) [Example 688, 3-(((7-(8-ethyl-7-fluoro-3-hydroxynaphthalen-1-yl)-8-fluoro-2-(((2R,7aS)-2-fluorohexahydro-1H-pyrrolizin-7a-yl)methoxy)pyrido[4,3-d]pyrimidin-4-yl)amino)methyl)-1-((3-hydroxycyclobutyl)methyl)-N,N-dimethyl-1H-pyrazole-5-carboxamide] are over 10000 nM, 42 nM, 357 nM, 160 nM and over 10000 nM.

The record behind these values is patent publication US20260015350A1, “AZAQUINAZOLINE PAN-KRAS INHIBITORS” (Mirati Therapeutics, Inc., priority 2022, published 2026).
